For data set [1] the following is noted: spontaneous racemization of the hydantoin at a pH above 8; depends on substituent at the 5-position; cited from earlier work.
Data set [2] in a line: Activity of DAPDH enzymes for reductive amination of 2-keto acids (NADPH decrease at 340 nm). It is filed as biochemical. The method, then: The mutant DAPDH enzyme was assayed spectrophotometrically by monitoring the decrease in concentration of NADPH. The typical reductive amination reaction contained the following: 100 mM sodium carbonate/bicarbonate buffer, pH 9.0, 200 mM NH4Cl, 25 mM 2-keto acid, and 0.2 mM NADPH. The decrease in absorbance at 340 nm was monitored and an NADPH extinction coefficient of 6.22 mM^−1cm^−1 was used to correlate absorbance to concentration. Protein concentrations were determined via the Bradford method ^19 using bovine serum albumin as a protein standard.

With `CC(C)C1NC(=O)NC1=O` (centres unmarked) [isopropylhydantoin], the “rate of racemization τ1/2” value in data set [1] is recorded as 56 h. As for `O=C1NC(=O)C(c2ccccc2)N1` (centres unmarked) [phenylhydantoin], the “rate of racemization τ1/2” value in data set [1] was 0.3 h. In the case of tert-butylhydantoin, in data set [1], the “rate of racemization τ1/2” value is given as 120 h.

Take `O=C1NC(=O)C(Cc2ccccc2)N1` (centres unmarked) [benzylhydantoin]: in data set [1], the “rate of racemization τ1/2” value was 5 h.

B1: wild-type diaminopimelate dehydrogenase enzyme from Corynebacterium glutamicum: wild-type diaminopimelate dehydrogenase from Corynebacterium glutamicum (ATTC #13032), SEQ ID NO. 2 (protein, listed as Corynebacterium glutamicum)
chain: MTNIRVAIVGYGNLGRSVEKLIAKQPDMDLVGIFSRRATLDTKTPVFDVADVDKHADDVDVLFLCMGSATDIPEQAPKFAQFACTVDTYDNHRDIPRHRQVMNEAATAAGNVALVSTGWDPGMFSINRVYAAAVLAEHQQHTFWGPGLSQGHSDALRRIPGVQKAVQYTLPSEDALEKARRGEAGDLTGKQTHKRQCFVVADAADHERIENDIRTMPDYFVGYEVEVNFIDEATFDSEHTGMPHGGHVITTGDTGGFNHTVEYILKLDRNPDFTASSQIAFGRAAHRMKQQGQSGAFTVLEVAPYLLSPENLDDLIARDV
In the case of B1, the “activity toward the reductive amination of 2-ketoacids to produce D-amino acids” value in data set [2] is on record as “little or no activity”.

The record behind these values is patent publication US7550277B2, “D-amino acid dehydrogenase and method of making D-amino acids” (Codexis, Inc., priority 2005, dated 2009).
